Assay results reported in PMC9228535, “Antistaphylococcal Activities and ADME-Related Properties of Chlorinated Arylcarbamoylnaphthalenylcarbamates” (Pharmaceuticals, 2022).
Values after ≈ are worked out from the molar mass of the structure shown.

What was measured:
MRSA 63718 [1] = assay: MIC, microtitration broth method; format: cell-based; conditions: Staphylococcus aureus, MRSA, 24 h
Experimental: (§1) All the investigated compounds were screened for in vitro antibacterial activity against the reference and quality control strain Staphylococcus aureus ATCC 29213 and clinical isolates of methicillin-resistant S. aureus (MRSA) 63718, SA 630, and SA 3202 [14]. Activities are expressed as the minimum inhibitory concentrations (MICs), see Table 2. In addition to the MICs, the minimum bactericidal concentrations (MBCs) were also determined.
(§2) In vitro antibacterial activity of the synthesized compounds was evaluated against representatives of multidrug-resistant bacteria, three clinical isolates of methicillin-resistant S. aureus: clinical isolate of animal origin, MRSA 63718 (Department of Infectious Diseases and Microbiology, Faculty of Veterinary Medicine, University of Veterinary Sciences Brno, Czech Republic), carrying the mecA gene; and MRSA SA 630 [46] and MRSA SA 3202 [46] (National Institute of Public Health, Prague, Czech Republic), both of human origin. Suspected colonies were confirmed by PCR; a 108bp fragment specific for S. aureus was detected. All isolates were tested for the presence of the mecA gene encoding methicillin resistance. […] Vancomycin-susceptible methicillin-susceptible S. aureus (VS-MSSA) ATCC 29213, obtained from the American Type Culture Collection, was used as the reference and quality control strain. Enterococcus faecalis ATCC 29212 was obtained from the American Type Culture Collection and used as the reference and quality control strain.
(§3) The minimum inhibitory concentrations (MICs) were evaluated by the microtitration broth method according to the CLSI [64, 65] with some modifications. The compounds were dissolved in DMSO (Sigma, St. Louis, MO, USA) to get a concentration […] and diluted in a microtitration plate in an appropriate medium, namely, Cation Adjusted Mueller–Hinton (CaMH, Oxoid, Basingstoke, UK) for staphylococci (S. aureus ATCC 29213, clinical isolates of MRSA 63718, SA 630, and SA 3202) and brain heart infusion (BHI, Oxoid) for E. faecalis ATCC 29212, to reach the final concentration of 256-0.125 µg/mL. The plate was inoculated by the tested microorganisms. The final concentration of bacterial cells was 10^5 for bacteria. Ampicillin (Sigma) was used as reference drugs. A drug-free control and a sterility control were included. The plates were incubated for 24 h at 37 °C for staphylococci and E. faecalis ATCC 29212 (stability evaluation of the carbamates, see Supplementary materials, Table S1). […] The experiments were repeated three times.

MRSA SA 3202 [2] = assay: MIC, microtitration broth method; format: cell-based; conditions: Staphylococcus aureus, 24 h
Experimental: as §1, §2, §3

MRSA SA 630 [3] = assay: MIC, microtitration broth method; format: cell-based; conditions: Staphylococcus aureus, 24 h
Experimental: as §1, §2, §3

[4] = system: Staphylococcus aureus ATCC 29213; assay: MIC, microtitration broth method; format: cell-based; conditions: ATCC29213, 24 h
Experimental: as §1, §2, §3

MRSA 63718 [5] = assay: MBC, agar aliquot subculture method; format: cell-based; conditions: Staphylococcus aureus, MRSA
Experimental: as §1
(§4) For the S. aureus and MRSA isolates, the agar aliquot subculture method was used as a test for bactericidal agents. After the MIC value determination, the inoculum was transferred to Mueller–Hinton (Oxoid) agar using a multipoint inoculator. The plates were incubated in a thermostat at 37 °C for 24 h. The lowest concentration of test compound at which ≤5 colonies were obtained was then evaluated as MBC, corresponding to a 99.9% decrease in CFU relative to the original inoculum.

MRSA SA 3202 [6] = assay: MBC, agar aliquot subculture method; format: cell-based; conditions: Staphylococcus aureus
Experimental: as §1, §4

MRSA SA 630 [7] = assay: MBC, agar aliquot subculture method; format: cell-based; conditions: Staphylococcus aureus
Experimental: as §1, §4

[8] = system: Staphylococcus aureus ATCC 29213; assay: MBC, agar aliquot subculture method; format: cell-based; conditions: ATCC29213
Experimental: as §1, §4

THP-1 cells = assay: In vitro cytotoxicity assay (WST-1); format: cell-based; conditions: Homo sapiens, THP-1, 24 h
Experimental: Preliminary in vitro cytotoxicity screening of the investigated compounds was performed using human monocytic leukemia THP-1 cells, see Table 2. The ability to inhibit the human cancer cell viability (IC50) of the compounds was compared to camptothecin toxicity (0.16 ± 0.07 μM). […] However, these values are up to two orders of magnitude higher than their significant antistaphyloccocal concentrations. This fact is also taken into account in the calculated selectivity index (SI), Table 2, where for only three compounds the SI is <20, while for the rest of the agents SI is >20, and for some derivatives even 100 and more. Thus, based on all these observations, it can be concluded that all the tested derivatives can be considered as in vitro non-toxic compounds for the subsequent design of new therapeutic agents.
The human THP-1 cell line (European Collection of Cell Cultures, Salisbury, UK) was cultured in RPMI 1640 medium supplemented with 10% fetal bovine serum, 2% L-glutamine, 1% penicillin, and streptomycin at 37 °C with 5% CO2. Cells were passaged at approximately 1-week intervals. All the tested compounds were prepared and dissolved as mentioned in our previous work.

[9] = system: S. aureus and MRSA isolates; assay: Antistaphylococcal MIC, summary over strains; format: cell-based, Staphylococcus aureus; conditions: Staphylococcus aureus, read-out: MICs
Experimental: as §1, with “determined. […] MBC values that meet this requirement, i.e., the compound is bactericidal, are indicated in bold in Table 2.” for “determined.”
as §2
The minimum inhibitory concentrations (MICs) were evaluated by the microtitration broth method according to the CLSI [64, 65] with some modifications. […]

CCNC(=O)Oc1c(C(=O)Nc2cc(Cl)c(Cl)cc2Cl)ccc2ccccc12 [Compound 2, 2-[N-(2,4,5-Trichlorophenyl)carbamoyl]naphthalen-1-yl ethyl carbamate]
MIC (MRSA 63718 [1]): 0.144 µM (≈ 0.063 µg/mL)
MIC (MRSA SA 3202 [2]): 0.018 µM (≈ 0.00788 µg/mL)
MIC (MRSA SA 630 [3]): 0.018 µM (≈ 0.00788 µg/mL)
MIC [4]: 0.018 µM (≈ 0.00788 µg/mL)
MBC (MRSA 63718 [5]): 0.286 µM (≈ 0.125 µg/mL)
MBC (MRSA SA 3202 [6]): 0.073 µM (≈ 0.032 µg/mL)
MBC (MRSA SA 630 [7]): 0.144 µM (≈ 0.063 µg/mL)
MBC [8]: 0.018 µM (≈ 0.00788 µg/mL)
IC50 (THP-1 cells): 2.85 ± 0.17 µM
MIC [9]: 0.018 to 0.064 µM (≈ 0.00788 to 0.028 µg/mL)
